Activity calls are given as the source filed them. The calls are words filed in the database; no cut-off is given here.
Test: Inhibition of ECE

| IC50 [µM] | Activity | SMILES |
| --- | --- | --- |
| 9 | – | CC1(C)C=Cc2c(ccc3c2O[C@@H](O)[C@@H]2c4ccc(O)cc4O[C@H]32)O1 [DALEFORMIS] |
| – | inactive | CC(=O)Oc1ccc2c(c1)O[C@@H]1c3ccc4c(c3O[C@@H](OC(C)=O)[C@H]21)C=CC(C)(C)O4 |

— ChEMBL document CHEMBL1145720, “Daleformis, a new phytoalexin from the roots fo Dalea filiciformis: an inhibitor of endothelin converting enzyme” (J Nat Prod, 1997)
